Results as given in ChEMBL document CHEMBL1151339, “Antitumor agents from bohemic acid complex, III. The isolation of marcellomycin, musettamycin, rudolphomycin, mimimycin, collinemycin, alcindoromycin, and bohemamine” (J Nat Prod, 1980).
Converted amounts (≈) assume the structure as drawn.

How the values were obtained:
Escherichia coli [1] = assay: Antibacterial activity against Escherichia coli A20341-1 by 2-fold tube dilution method; type: functional
Escherichia coli [2] = assay: Antibacterial activity against Escherichia coli A15119 by 2-fold tube dilution method; type: functional
Streptococcus pneumoniae = assay: Antibacterial activity against Streptococcus pneumoniae A-9585 by 2-fold tube dilution method; type: functional
B16 [3] = assay: Antitumor activity against mouse B16 cells xenografted in BDF1 mouse at 3.2 mg/kg relative to control; type: functional
B16 [4] = assay: Antitumor activity against mouse B16 cells xenografted in BDF1 mouse assessed as change in tumor average weight at 0.2 mg/kg; type: functional
Candida albicans [5] = assay: Antifungal activity against Candida albicans A15050 by 2-fold tube dilution method; type: functional
Mus musculus [6] = assay: Toxicity in BDF1 mouse xenografted with mouse L1210 cells assessed as survival at 12.8 mg/kg, ip after 5 days; type: organism-based; parameters: dose 12.8 mg/kg, route intraperitoneal; conditions: in vivo, 120 h
Mus musculus [7] = assay: Toxicity in BDF1 mouse xenografted with mouse B16 cells assessed as survival at 0.025 mg/kg after 5 days; type: organism-based; parameters: dose 0.025 mg/kg
[8] = test system: Trichophyton mentagrophytes; assay: Antifungal activity against Trichophyton mentagrophytes A-9870 by 2-fold tube dilution method; type: functional
L1210 [9] = assay: Antitumor activity against mouse L1210 cells xenografted in BDF1 mouse at 0.8 mg/kg, ip relative to control; type: functional; conditions: route intraperitoneal
L1210 [10] = assay: Antitumor activity against mouse L1210 cells xenografted in BDF1 mouse assessed as median survival time at 0.4 mg/kg, ip; type: functional; conditions: route intraperitoneal
Mus musculus [11] = assay: Toxicity in BDF1 mouse xenografted with mouse B16 cells assessed as survival at 0.05 mg/kg after 5 days; type: organism-based; parameters: dose 0.05 mg/kg
Candida albicans [12] = assay: Antifungal activity against Candida albicans A15049 by 2-fold tube dilution method; type: functional
B16 [13] = assay: Antitumor activity against mouse B16 cells xenografted in BDF1 mouse assessed as median survival time at 0.1 mg/kg; type: functional
Enterococcus faecalis = assay: Antibacterial activity against Streptococcus faecalis A20688 by 2-fold tube dilution method; type: functional
Mus musculus [14] = assay: Toxicity in BDF1 mouse xenografted with mouse L1210 cells assessed as survival at 6.4 mg/kg, ip after 5 days; type: organism-based; parameters: dose 6.4 mg/kg, route intraperitoneal; conditions: in vivo, 120 h

CC[C@@]1(O)C[C@H](O[C@H]2C[C@H](N(C)C)[C@H](O[C@H]3C[C@H](O)[C@H](O[C@@H]4O[C@@H](C)C(=O)C=C4N)[C@@H](C)O3)[C@@H](C)O2)c2c(cc3c(c2O)C(=O)c2c(O)ccc(O)c2C3=O)[C@H]1C(=O)OC [RUDOLPHOMYCIN]
MIC (Escherichia coli [1]): > 125 µg/mL | MIC (Escherichia coli [2]): > 125 µg/mL | MIC (Streptococcus pneumoniae): 0.06 µg/mL (≈ 0.0714 µM) | T/C (B16 [3]): 115% | Activity (B16 [4]): -1 g | MIC (Candida albicans [5]): > 16 µg/mL | Activity (Mus musculus [6]): Toxic | AC50 (Mus musculus [7]): Non-toxic | MIC [8]: > 16 µg/mL | T/C (L1210 [9]): 120% | Activity (L1210 [10]): 8 days | AC50 (Mus musculus [11]): Non-toxic | MIC (Candida albicans [12]): > 16 µg/mL | Activity (B16 [13]): 27.5 days | MIC (Enterococcus faecalis): 1 µg/mL (≈ 1.19 µM) | Activity (Mus musculus [14]): Toxic
